Where a name gives a salt, the structure may show the parent alone.
How the values were obtained:
[1] = molecular target: T1, neuronal isoform of nitric oxide synthetase (Rattus norvegicus, UniProt P29476); assay: biochemical; settings: enzyme from rat hippocampus or cerebellum; 22° C., 10 minutes; read-out: IC50 in the screen for activity against the neuronal isoform of nitric oxide synthetase
T1 construct: Enzyme was isolated from rat hippocampus or cerebellum; from tissue; host or cells: hippocampus or cerebellum of male Sprague-Dawley rat (20,000 g supernatant)
T1 sequence (P29476 whole entry, canonical isoform): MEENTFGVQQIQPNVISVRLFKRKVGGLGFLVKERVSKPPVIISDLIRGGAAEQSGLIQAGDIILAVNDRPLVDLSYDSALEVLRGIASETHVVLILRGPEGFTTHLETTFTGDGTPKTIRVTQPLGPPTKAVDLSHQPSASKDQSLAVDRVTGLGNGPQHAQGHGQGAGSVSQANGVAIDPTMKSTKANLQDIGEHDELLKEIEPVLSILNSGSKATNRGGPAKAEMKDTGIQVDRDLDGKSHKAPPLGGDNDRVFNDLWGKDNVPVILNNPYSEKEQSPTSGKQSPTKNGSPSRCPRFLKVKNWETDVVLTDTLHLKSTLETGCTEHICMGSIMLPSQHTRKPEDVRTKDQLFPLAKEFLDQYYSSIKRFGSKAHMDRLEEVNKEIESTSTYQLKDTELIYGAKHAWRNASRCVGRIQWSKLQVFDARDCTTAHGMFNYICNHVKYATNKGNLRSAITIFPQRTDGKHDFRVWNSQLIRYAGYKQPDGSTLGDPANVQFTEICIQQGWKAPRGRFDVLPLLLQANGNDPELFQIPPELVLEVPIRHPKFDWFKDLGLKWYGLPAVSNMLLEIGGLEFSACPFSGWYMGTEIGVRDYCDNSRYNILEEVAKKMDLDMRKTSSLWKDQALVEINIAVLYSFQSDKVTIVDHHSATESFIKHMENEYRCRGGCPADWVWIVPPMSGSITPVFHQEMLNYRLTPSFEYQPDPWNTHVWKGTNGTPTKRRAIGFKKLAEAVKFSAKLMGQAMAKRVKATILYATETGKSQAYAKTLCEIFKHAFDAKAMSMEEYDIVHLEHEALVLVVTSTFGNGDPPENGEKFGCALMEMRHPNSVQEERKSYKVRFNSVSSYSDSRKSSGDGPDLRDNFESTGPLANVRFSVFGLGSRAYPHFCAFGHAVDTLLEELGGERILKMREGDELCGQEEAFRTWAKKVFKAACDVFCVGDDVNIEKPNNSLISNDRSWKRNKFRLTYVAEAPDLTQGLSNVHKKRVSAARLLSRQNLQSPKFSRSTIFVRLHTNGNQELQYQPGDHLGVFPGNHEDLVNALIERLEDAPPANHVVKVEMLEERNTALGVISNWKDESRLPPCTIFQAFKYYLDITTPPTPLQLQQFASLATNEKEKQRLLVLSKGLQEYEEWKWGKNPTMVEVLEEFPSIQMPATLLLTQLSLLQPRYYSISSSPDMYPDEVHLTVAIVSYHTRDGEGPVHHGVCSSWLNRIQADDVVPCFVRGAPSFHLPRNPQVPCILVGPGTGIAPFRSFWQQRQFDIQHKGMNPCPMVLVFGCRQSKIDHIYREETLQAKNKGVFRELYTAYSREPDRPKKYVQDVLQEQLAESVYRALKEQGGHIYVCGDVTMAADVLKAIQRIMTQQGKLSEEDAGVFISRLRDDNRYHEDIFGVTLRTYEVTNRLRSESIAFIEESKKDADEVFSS
Method: 1) Screen for Neuronal Nitric Oxide Synthase Inhibition Activity
Enzyme was isolated from rat hippocampus or cerebellum. The cerebellum or hippocampus of a male Sprague-Dawley rat (250-275g) is removed following CO2 anaesthesia of the animal and decapitation. Cerebellar or hippocampal supernatant is prepared by homogenisation in 50 mM Tris-HCl with 1 mM EDTA buffer (pH 7.2 at 25° C.) and centifugation for 15 minutes at 20,000 g. Residual L-arginine is removed from the supernatant by chromatography through Dowex AG-50W-X8 sodium form and hydrogen form columns successively, and further centrifugation at 1000 g for 30 seconds.
For the assay, 25 μl of the final supernatant is added to each of 12 test tubes containing 25 μl L-arginine solution (of concentration 18 μM ^1 H-L-arginine, 96 nM ^3 H-L-arginine) and either 25 μl of an assay buffer (50 mM HEPES, 1 mM EDTA, 1.5 mM CaCl2, pH 7.4) or 25 μl of test compound in the buffer at 22° C. […]
Labelled L-citrulline is separated from labelled L-arginine by chromatography over a Dowex AG-50W-X8 200-400 mesh column. […] The L-citrulline is then quantified by scintillation counting. […]

[2] = molecular target: T2, endothelial isoform of nitric oxide synthetase (Homo sapiens, UniProt P29474); assay: Screen for Endothelial Nitric Oxide Synthase Inhibition Activity; type: biochemical
T2 construct: Enzyme may be isolated from human umbilical vein endothelial cells (HUVECs); host or cells: human umbilical vein endothelial cells (HUVECs), CHAPS-solubilised particulate fraction
T2 sequence (P29474 2-1203): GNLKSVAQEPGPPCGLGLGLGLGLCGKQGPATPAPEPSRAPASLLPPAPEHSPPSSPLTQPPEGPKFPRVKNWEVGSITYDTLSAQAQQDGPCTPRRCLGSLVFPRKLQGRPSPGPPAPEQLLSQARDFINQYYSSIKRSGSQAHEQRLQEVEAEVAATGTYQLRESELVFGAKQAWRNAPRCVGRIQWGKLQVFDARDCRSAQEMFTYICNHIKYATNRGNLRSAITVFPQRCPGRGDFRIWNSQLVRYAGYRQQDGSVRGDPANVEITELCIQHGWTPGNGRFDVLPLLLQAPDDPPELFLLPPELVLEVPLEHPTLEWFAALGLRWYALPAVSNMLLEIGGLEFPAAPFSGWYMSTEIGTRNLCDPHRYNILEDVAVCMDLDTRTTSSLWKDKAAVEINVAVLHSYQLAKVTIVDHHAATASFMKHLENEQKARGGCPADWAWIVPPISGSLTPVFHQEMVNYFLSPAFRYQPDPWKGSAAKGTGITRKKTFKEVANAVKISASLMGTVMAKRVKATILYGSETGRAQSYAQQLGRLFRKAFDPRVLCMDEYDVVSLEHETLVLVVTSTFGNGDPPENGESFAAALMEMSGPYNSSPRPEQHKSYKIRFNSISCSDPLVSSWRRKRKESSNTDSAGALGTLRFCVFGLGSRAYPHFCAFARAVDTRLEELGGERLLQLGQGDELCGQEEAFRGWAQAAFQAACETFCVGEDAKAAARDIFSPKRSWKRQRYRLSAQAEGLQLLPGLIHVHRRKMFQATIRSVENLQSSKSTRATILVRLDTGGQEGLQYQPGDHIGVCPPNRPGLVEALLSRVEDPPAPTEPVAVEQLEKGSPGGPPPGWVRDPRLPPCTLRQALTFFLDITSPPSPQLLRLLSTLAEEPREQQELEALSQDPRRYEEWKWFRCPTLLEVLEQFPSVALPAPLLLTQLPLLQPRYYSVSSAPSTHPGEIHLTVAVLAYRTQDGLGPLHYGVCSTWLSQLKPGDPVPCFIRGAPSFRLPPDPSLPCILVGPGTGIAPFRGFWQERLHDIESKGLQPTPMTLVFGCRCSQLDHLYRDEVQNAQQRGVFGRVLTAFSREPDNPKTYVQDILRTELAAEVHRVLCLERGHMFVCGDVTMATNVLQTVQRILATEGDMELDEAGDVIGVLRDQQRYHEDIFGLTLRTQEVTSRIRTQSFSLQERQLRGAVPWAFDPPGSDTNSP
Method: 3) Screen for Endothelial Nitric Oxide Synthase Inhibition Activity
HUVECs were purchased from Clonetics Corp (San Diego, Calif., USA) and cultured to confluency. Cells can be maintained to passage 35-40 without significant loss of yield of nitric oxide synthase. When cells reach confluency, they are resuspended in Dulbecco's phosphate buffered saline, centrifuged at 800 rpm for 10 mins, the cell pellet homogenised in ice-cold 50 mM Tris-HCl, 1 mM EDTA, 10% glycerol, 1 mM phenylmethylsulphonylfluoride, 2 μM leupeptin at pH 4.2. Following centrifugation at 34,000 rpm for 60 mins, the pellet is solubilised in the homogenisation buffer which also contains 20 mM CHAPS. After a 30 min incubation on ice, the suspension is centrifuged at 34,000 rpm for 30 mins. The resulting supernatant is stored at -80° C. until use. […]
Labelled L-citrulline is separated from labelled L-arginine by chromatography over a Dowex AG-50W-X8 200-400 mesh column. […] The L-citruiline is then quantified by scintillation counting. […]

[3] = molecular target: T3, macrophage isoform of nitric oxide synthetase (Mus musculus, UniProt P29477); assay: Screen for Macrophage Nitric Oxide Synthase Inhibition Activity; type: biochemical; settings: lysate of induced murine J774A-1 cells; 1 hour at room temperature; read-out: IC50 in the screen for activity against the macrophage isoform of nitric oxide synthetase
T3 construct: endogenous in cells; host or cells: murine macrophage cell line J774A-1 (from laboratories of the Imperial Cancer Research Fund), induced with LPS and IFN-gamma
From the text: The enzyme nitric oxide synthetase has a number of isoforms and compounds of formula I, or a pharmaceutically acceptable salt thereof, may be screened for nitric oxide synthetase inhibition activity by procedures based on those of Bredt and Snyder in Proc. Natl. Acad. Sci. (1990) 87, 682-685 and Forstermann et. al. (1992) Eur. J. Pharm. 225, 161-165. Nitric oxide synthetase converts ^3 H-L-arginine to ^3 H-L-citrulline which can be separated by cation exchange chromatography and quantified by liquid scintillation counting.
(2) Screen for Macrophage Nitric Oxide Synthase Inhibition Activity
Enzyme is prepared, after induction, from the cultured murine macrophage cell line J774A-1 (obtained from laboratories of the Imperial Cancer Research Fund). J774A-1 cells are cultured in Dulbecco's Modified Eagles Medium (DMEM) supplemented with 10% foetal bovine serum, 4 mM L-glutamine and antibiotics (100 units/ml penicillin G, 100 μg/ml streptomycin & 0.25 μg/ml amphotericin B). Cells are routinely grown in […] flasks containing 35 ml medium kept at 37° C. and in a humidified atmosphere containing 5% CO2.
Nitric oxide synthase is produced by cells in response to inferferon-γ(IFNγ) and lipopolysaccharide (LPS). […]
Labelled L-citrulline is separated from labelled L-arginine using Dowex AG-50W. […] After allowing the samples to dry the L-citrulline is quantified by scintillation counting. […]

Row | Structure (SMILES) | IC50 [1] [µM] | IC50 ([2]; enzyme from HUVECs, 22° C., 10 minutes, read-out: IC50 in the screen for activity against the endothelial isoform of nitric oxide synthetase) [µM] | IC50 [3] [µM] | inhibition at 1 µM ([2]; at a concentration of 1 μM, reference standard) [%]
1 | CC(=O)Nc1cccc(NC(=N)N2CCCC2)c1 [Example 1, N-(3-((methylcarbonyl)amino)phenyl)-1-pyrrolidinecarboximidamide monohydrochloride] | < 10 | > 100 | > 100 | –
2 | N=C(NCCC[C@H](N)C(=O)O)N[N+](=O)[O-] [N-nitro-L-arginine, reference compound] | – | – | – | 70 to 90
